Laboratory results reported in US20090105250A1, “COMPOUNDS AND COMPOSITIONS AS PROTEIN KINASE INHIBITORS” (IRM LLC, priority 2005, published 2009).
One block for each molecule: values may come before it.

How the values were obtained:
Format in all cases: cell-based
Flt-3 = biological target: T1, Flt-3 (Homo sapiens, UniProt P36888, cells depend on it, form not given); assay: FLT3 (Cellular Assay), Ba/F3-FLT3-ITD proliferation; settings: read-out: IC50 for Flt-3
T1 sequence (P36888 1-993): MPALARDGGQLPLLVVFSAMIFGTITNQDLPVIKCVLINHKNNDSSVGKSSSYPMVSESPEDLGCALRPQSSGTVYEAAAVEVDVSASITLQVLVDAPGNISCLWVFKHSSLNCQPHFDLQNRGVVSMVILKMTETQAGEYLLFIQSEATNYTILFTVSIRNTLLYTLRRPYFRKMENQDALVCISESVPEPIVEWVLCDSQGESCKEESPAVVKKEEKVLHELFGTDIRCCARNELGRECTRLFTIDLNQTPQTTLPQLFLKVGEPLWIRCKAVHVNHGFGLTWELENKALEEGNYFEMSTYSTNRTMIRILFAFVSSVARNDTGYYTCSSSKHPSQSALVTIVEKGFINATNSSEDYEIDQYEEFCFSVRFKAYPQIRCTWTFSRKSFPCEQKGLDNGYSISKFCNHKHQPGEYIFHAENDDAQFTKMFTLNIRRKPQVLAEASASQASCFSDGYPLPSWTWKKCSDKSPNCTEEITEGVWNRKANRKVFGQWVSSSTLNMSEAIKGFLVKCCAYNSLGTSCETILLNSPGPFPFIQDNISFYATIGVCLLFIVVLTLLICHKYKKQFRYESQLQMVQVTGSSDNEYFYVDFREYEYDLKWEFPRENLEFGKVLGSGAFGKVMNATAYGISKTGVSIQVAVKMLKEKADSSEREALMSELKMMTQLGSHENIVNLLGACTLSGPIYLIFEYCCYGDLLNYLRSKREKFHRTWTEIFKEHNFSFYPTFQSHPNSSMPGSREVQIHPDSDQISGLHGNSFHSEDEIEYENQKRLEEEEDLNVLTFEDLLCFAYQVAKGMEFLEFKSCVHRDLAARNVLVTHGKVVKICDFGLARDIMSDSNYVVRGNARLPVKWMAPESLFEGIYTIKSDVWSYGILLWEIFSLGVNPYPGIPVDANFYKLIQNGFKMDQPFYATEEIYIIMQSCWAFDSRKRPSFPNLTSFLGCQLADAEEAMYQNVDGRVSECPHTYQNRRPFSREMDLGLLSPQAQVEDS

wild type Bcr-abl = biological target: T2, wild type Bcr-abl (Homo sapiens, UniProt P00519); assay: Proliferation of Ba/F3 cells expressing wild type Bcr-abl
T2 construct: expressed in transfected cells; host or cells: Ba/F3 murine pro-B cells; the other entry of the earlier key: BCR (P11274, Breakpoint cluster region protein)
Procedure: The murine cell line used is the Ba/F3 murine pro-B cell line transformed with BCR-Abl cDNA (Ba/F3-p210). These cells are maintained in RPMI/10% fetal calf serum (RPMI/FCS) supplemented with penicillin 50 μg/mL, streptomycin 50 μg/mL and L-glutamine 200 mM. Untransformed Ba/F3 Ba/F3 cells are similarly maintained with the addition of murine recombinant IL3.
(§1) Ba/F3-p210 cells are plated into 96 well TC plates at a density of 15,000 cells per well. 50 μL of two fold serial dilutions of the test compound (Cmax, is […]) are added to each well (STI571 is included as a positive control). After incubating the cells for 48 hours at 37° C., 5% CO2, 15 μL of MTT (Promega) is added to each well and the cells are incubated for an additional 5 hours. The optical density at 570 nm is quantified spectrophotometrically and IC50 values, the concentration of compound required for 50% inhibition, determined from a dose response curve.
Compounds of the invention are tested for their antiproliferative effect on Ba/F3 cells expressing either wild type or the mutant forms of BCR-Abl (G250E, E255V, T315I, F317L, M351T) that confers resistance or diminished sensitivity to STI571. […] The IC50 values of the compounds lacking toxicity on the untransformed cells were determined from the dose response curves obtained as describe above.

G250E Bcr-abl = biological target: T3, G250E Bcr-abl (Homo sapiens, UniProt P00519, G250E); assay: Proliferation of Ba/F3 cells expressing mutant Bcr-abl G250E
T3 construct: expressed in transfected cells; host or cells: Ba/F3 murine pro-B cells; the other entry of the earlier key: BCR (P11274, Breakpoint cluster region protein)
Procedure: as §1
(§2) Compounds of the invention are tested for their antiproliferative effect on Ba/F3 cells expressing either wild type or the mutant forms of BCR-Abl (G250E, E255V, T315I, F317L, M351T) that confers resistance or diminished sensitivity to STI571. The antiproliferative effect of these compounds on the mutant-BCR-Abl expressing cells and on the non transformed cells were tested as described above. The IC50 values of the compounds lacking toxicity on the untransformed cells were determined from the dose response curves obtained as describe above.

E255V Bcr-abl = biological target: T4, E255V Bcr-abl (Homo sapiens, UniProt P00519, E255V); assay: Proliferation of Ba/F3 cells expressing mutant Bcr-abl E255V
T4 construct: expressed in transfected cells; host or cells: Ba/F3 murine pro-B cells; the other entry of the earlier key: BCR (P11274, Breakpoint cluster region protein)
T4 sequence (P00519 229-512 E255V limits assumed): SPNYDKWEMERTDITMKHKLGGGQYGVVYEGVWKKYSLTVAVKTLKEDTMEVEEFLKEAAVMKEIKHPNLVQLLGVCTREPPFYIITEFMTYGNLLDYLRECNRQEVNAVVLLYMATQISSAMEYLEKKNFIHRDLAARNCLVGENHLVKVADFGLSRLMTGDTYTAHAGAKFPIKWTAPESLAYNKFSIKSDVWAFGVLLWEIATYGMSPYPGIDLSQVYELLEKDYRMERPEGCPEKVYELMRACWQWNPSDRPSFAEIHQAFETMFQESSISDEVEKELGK
Procedure: as §1, §2

T315I Bcr-abl = biological target: T5, T315I Bcr-abl (Homo sapiens, UniProt P00519, T315I); assay: Proliferation of Ba/F3 cells expressing mutant Bcr-abl T315I
T5 construct: expressed in transfected cells; host or cells: Ba/F3 murine pro-B cells; the other entry of the earlier key: BCR (P11274, Breakpoint cluster region protein)
Procedure: as §1, §2

F317L Bcr-abl = biological target: T6, F317L Bcr-abl (Homo sapiens, UniProt P00519, F317L); assay: Proliferation of Ba/F3 cells expressing mutant Bcr-abl F317L
T6 construct: expressed in transfected cells; host or cells: Ba/F3 murine pro-B cells; the other entry of the earlier key: BCR (P11274, Breakpoint cluster region protein)
Procedure: as §1, §2

M351T Bcr-abl = biological target: T7, M351T Bcr-abl (Homo sapiens, UniProt P00519, M351T); assay: Proliferation of Ba/F3 cells expressing mutant Bcr-abl M351T
T7 construct: expressed in transfected cells; host or cells: Ba/F3 murine pro-B cells; the other entry of the earlier key: BCR (P11274, Breakpoint cluster region protein)
Procedure: as §1, §2

PDGFRβ = biological target: T8, PDGFRβ (Homo sapiens, UniProt P09619); assay: PDGFRβ (Cellular Assay), Ba/F3-Tel-PDGFRβ proliferation; settings: read-out: IC50 for PDGFRβ
T8 construct: fused on or other part: P41212 (Transcription factor ETV6)
T8 sequence (P09619 600-962 limits assumed, change not shown): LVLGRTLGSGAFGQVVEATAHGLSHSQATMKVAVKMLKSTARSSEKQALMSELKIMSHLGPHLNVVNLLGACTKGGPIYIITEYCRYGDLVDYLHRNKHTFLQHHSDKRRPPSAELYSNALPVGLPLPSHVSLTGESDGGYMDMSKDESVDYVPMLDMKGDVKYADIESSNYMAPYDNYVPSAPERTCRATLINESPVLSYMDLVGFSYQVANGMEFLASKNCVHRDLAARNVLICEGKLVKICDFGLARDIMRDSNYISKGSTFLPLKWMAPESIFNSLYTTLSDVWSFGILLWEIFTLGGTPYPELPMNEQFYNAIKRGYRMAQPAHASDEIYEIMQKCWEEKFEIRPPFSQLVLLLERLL

GI50 (Flt-3): 41 nM
Compound: Cc1cn(-c2cc(C(=O)Nc3ccc(C)c(NC(=O)c4cnc(NCCO)s4)c3)cc(C(F)(F)F)c2)cn1 [Compound 5, 2-(2-Hydroxy-ethylamino)-thiazole-5-carboxylic acid {2-methyl-5-[3-(4-methyl-imidazol-1-yl)-5-trifluoromethyl-benzoylamino]-phenyl}-amide]

IC50 (wild type Bcr-abl): 5 nM
IC50 (G250E Bcr-abl): 2290 nM
IC50 (E255V Bcr-abl): 12 nM
IC50 (T315I Bcr-abl): 1270 nM
IC50 (F317L Bcr-abl): 5 nM
IC50 (M351T Bcr-abl): 5 nM
Compound: CCN1CCN(c2cc(Nc3ncc(C(=O)Nc4cc(NC(=O)c5cccc(C(F)(F)F)c5)ccc4C)s3)nc(C)n2)CC1 [Example 8, 2-[6-(4-ethyl-piperazin-1-yl)-2-methyl-pyrimidin-4-ylamino]-thiazole-5-carboxylic acid [2-methyl-5-(3-trifluoromethyl-benzoylamino)-phenyl]-amide]

GI50 (PDGFRβ): 5 nM
Compound: Cc1cn(-c2cc(C(=O)Nc3ccc(C)c(NC(=O)c4cnc(Nc5cc(N6CCOCC6)nc(C)n5)s4)c3)cc(C(F)(F)F)c2)cn1 [Example 28, 2-(2-methyl-6-morpholin-4-yl-pyrimidin-4-ylamino)-thiazole-5-carboxylic acid {2-methyl-5-[3-(4-methyl-imidazol-1-yl)-5-trifluoromethyl-benzoylamino]-phenyl}-amide]

IC50 (wild type Bcr-abl): 8 nM
IC50 (T315I Bcr-abl): 570 nM
Compound: CCN1CCN(c2cc(Nc3ncc(C(=O)Nc4cc(NC(=O)c5cc(-n6cnc(C)c6)cc(C(F)(F)F)c5)ccc4C)s3)nc(C)n2)CC1 [Example 29, 2-[6-(4-ethyl-piperazin-1-yl)-2-methyl-pyrimidin-4-ylamino]-thiazole-5-carboxylic acid {2-methyl-5-[3-(4-methyl-imidazol-1-yl)-5-trifluoromethyl-benzoylamino]-phenyl}-amide]
